Patent US20260166115A1, “POLYUNSATURATED FATTY ACID-BOUND ALPHA FETOPROTEIN PROMOTES IMMUNE SUPPRESSION BY ALTERING HUMAN DENDRITIC CELL METABOLISM” (The Regents of the University of California, priority 2022, published 2026)

Assays:
Assay type in all cases: cell-based, human
[1] = test system: iDCs and mDCs; test: Fatty acid screen: fatty acids added back to HMM OVA, nAFP or tAFP; details: for CD206 expression at the iDC stage / inhibition of CD206 expression, mDC: FA combined with tAFP; for CD206 expression compared to controls: FA+HMM tAFP
Description: Fatty acids were resuspended in ethanol and stored at −20° C. at 100 uM.

[2] = test system: iDCs; test: Fatty acid screen: fatty acids titrated onto iDCs without OVA, nAFP or tAFP; details: for lactate production: relative to control cells, 16:0 at 5-20 μM in b86
Source text: We developed an in vitro assay to screen specific FAs that are necessary for tAFP-mediated suppression of DC formation (FIG. 6A). Many of the FAs screened have known roles in promoting (Weatherill, A. R. et al. Saturated and Polyunsaturated Fatty Acids Reciprocally Modulate Dendritic Cell Functions Mediated through TLR4. J Immunol. 174, 5390-5397 (2005); Lancaster, G. I. et al. Evidence that TLR4 Is Not a Receptor for Saturated Fatty Acids but Mediates Lipid-Induced Inflammation by Reprogramming Macrophage Metabolism. Cell Metab. 27, 1096-1110.e5 (2018)) or limiting DC differentiation (Zeyda, M. et al. Polyunsaturated Fatty Acids Block Dendritic Cell Activation and Function Independently of NF-κB Activation. J Biol. Chem. 280, 14293-14301 (2005)). Therefore, to determine their necessity for tAFP-mediated DC suppression, we titrated several FAs unique to tAFP (20:3 N6, 20:5, and 22:5 N3), and other PUFAs to determine the concentration they lost their inherent ability to suppress DC differentiation in the absence of OVA, nAFP, or tAFP (FIG. 6A). […] All three PUFAs at high concentrations inhibited CD206 expression on DCs (Zeyda. M. et al. Polyunsaturated Fatty Acids Block Dendritic Cell Activation and Function Independently of NF-κB Activation. J Biol. Chem. 280, 14293-14301 (2005)), at levels equivalent to or greater than tAFP treatment.
Fatty acids were resuspended in ethanol and stored at −20° C. at 100 uM. […] Both the native preparations and HMM fractions contained similar amounts of protein (˜0.5 mg/mL), whereas protein was undetectable ([…]) in the low molar mass (LMM) fraction. […] Fats (+/−HMM) were added to pre-warmed media and incubated for 1 hour, mixing at 37° C. before adding to cells (Alsabeeh, N., Chausse, B., Kakimoto, P. A., Kowaltowski, A. J. & Shirihai, O. Cell Culture Models of Fatty Acid Overload: Problems and Solutions. Biochim. Biophys. Acta 1863, 143-151 (2018)). Fats were combined with HMM at a 3:1 molar ratio, as previously described (Alsabeeh, N., Chausse, B., Kakimoto, P. A., Kowaltowski, A. J. & Shirihai. O. Cell Culture Models of Fatty Acid Overload: Problems and Solutions. Biochim. Biophys. Acta 1863, 143-151 (2018)).

[3] = test system: monocyte-derived dendritic cells (DCs); test: Glucose and lactate measurements in DC cultures; details: DC
Source text: (§1) DCs were differentiated in vitro similarly as previously described (Pardee, A. D., Shi, J. & Butterfield, L. H. Tumor-Derived α-Fetoprotein Impairs the Differentiation and T Cell Stimulatory Activity of Human Dendritic Cells. J Immunol. 193, 5723-5732 (2014)). In brief, cryopreserved PBMC were thawed and CD14*monocytes were magnetically labeled using CD14 MicroBeads (Miltenyi, Cat #130-050-201) and isolated by LS columns (Miltenyi, Cat #130-042-401) per the manufacturer instructions. Viable eluted cells were enumerated using trypan blue on a Nexcelom Cellometer Spectrum. To generate iDCs, monocytes were stimulated for 5 days in the presence of 800 IU/mL of rGM-CSF (Miltenyi, Cat #130-093-862) and 500 IU/mL of rIL-4 (Miltenyi, Cat #130-095-373) as well as OVA, nAFP, or tAFP in CellGenix® GMP DC media (Cat #20801-0500) 37° C. at 5% CO2. Lastly, we performed an additional 24-hour stimulation with 1000 IU/mL of rIFN-γ (Peprotech, Cat #300-02) and 250 ng/mL of LPS (Sigma Aldrich, Cat #L2630-10MG) to produce mDCs. To harvest cells, DC were detached using TrypLE™ Select (Gibco, Cat #12563011) for 15 minutes at 37° C. and then washed several times with cold PBS.
Glucose and lactate were measured by applying approximately 5 μL of supernatant to Clarity BG1000 Blood Glucose strips (Cat #75840-798) and meter (Cat #75840-800) system or the Lactate Plus strips (Nova Biomedical©, Cat #40813) and meter version 2 (Nova Biomedical©, Cat #62624) system. Each meter was quality checked with control glucose and lactate solutions and CellGenix™ media before each experiment.

[4] = test system: monocyte-derived dendritic cells (DCs); test: SCENITH single-cell energetic metabolism profiling of treated DCs; details: DC
Source text: as §1
SCENITH was performed as described in (Arguello et al., 2020). SCENITH™ reagents kit (inhibitors, puromycin and antibodies) were obtained from www.scenith.com/try-it and used according to the provided protocol for in-vitro derived myeloid cells. Briefly, control and tol-moDC cultures at desired timepoints, were treated for 18 minutes with Control (DMSO), 2-Deoxy-Glucose (2-DG; 100 mM), Oligomycin (0; 1 μM), a combination of 2DG and Oligomycin (DGO) or Harringtonine (H; 2 μg/mL). Following metabolic inhibitors, Puromycin (final concentration 10 μg/mL) was added to cultures for 17 min. After puromycin treatment, cells were detached from wells using TypLE Select (Fisher Scientific, 505914419), washed in cold PBS and stained with a combination of Human TureStain FcX (Biolegend, 422301) and fluorescent cell viability dye (Biolegend, 423105) for 10 min 4° C. in PBS. Following PBS wash step, primary antibodies against surface markers were incubated for 25 min at 4° C. in Brilliant Stain Buffer (BD Biosciences, 563794). Next cells were fixed and permeabilized using True-Nuclear Transcription Factor Buffer Set (Biolegend, 424401) as per manufacturer instructions. Intracellular staining of puromycin and protein targets was performed for 1 h in diluted (10×) permeabilization buffer at 4° C. Finally, data acquisition was performed using the Cytek Aurora flow cytometer. Primary conjugated antibody information used in SCENITH panel is listed in supplementary table 1. All antibodies were titrated to reduce spillover and increase resolution using single stained moDC (generated as described above) samples. Unstained cell controls used for autofluorescence extraction were generated for each time point, culture conditions (control, vitd3-tol-moDC and dexa-vitd3-tol-moDC) and metabolic inhibitor treatments (C, 2DG, O, DGO). Samples were unmixed using reference controls generated in combination with stained Ultracomp beads (Fisher Scientific, 01-2222-41) and stained cells using the SpectroFlo Software v2.2.0.1. The unmixed FCS files were used for data processing and analysis using FlowJo (BD, version 10.7.1). Manually gated CD14-HLA-DR*CD86+ cells were used for downstream analysis. gMFI expression values were imported into R environment for correlation and heatmap analysis using the below described R packages.

[5] = test system: mDCs generated in vitro; test: scMEP single-cell metabolic regulome profiling by CyTOF
Description: scMEP analysis was performed as recently described (Hartmann et al., 2021). In short, antibodies targeting metabolic features were conjugated in-house using an optimized conjugation protocol (Hartmann et al., 2019) and validated on multiple sample types. Cells were prepared for scMEP analysis by incubation with small molecules to be able to assess biosynthesis rates of DNA, RNA and protein, cisplatin-based live/dead staining, PFA-based cell fixation and cryopreservation (dx.doi.org/10.17504/protocols.io.bkwkkxcw). Next, cells were stained with metabolic antibodies in a procedure that includes surface staining for 30 min at RT, PFA-fixation for 10 min at RT, MeOH-based permeabilization for 10 min on ice, intracellular staining for 1 h at RT and DNA intercalation (dx.doi.org/10.17504/protocols.io.bntnmeme). Finally, cells were acquired on a CyTOF2 mass cytometer (Fluidigm). Protein targets and antibody information used in scMEP are listed in supplementary table 2. Raw mass spectrometry data were pre-processed, de-barcoded and imported into R environment using the flowCore package (version 2.0.1) (Hahne et al., 2009). Values were arcsin h transformed (cofactor 5) and normalized (Hartmann et al., 2021) for downstream analyses based on previously reported workflow (Nowicka et al., 2017).

With `CCCCC/C=C\C/C=C\C/C=C\C/C=C\CCCC(=O)O` [20:4, arachidonic acid] the “CD206 expression at the iDC stage” value [1] was “immunoregulatory activity”, the “inhibition of CD206 expression, mDC” value [1] was about -15% and the “CD206 expression compared to controls” value [1] was “significantly reduced”.

With `CCCCCCCCCCCCCCCC(=O)O` [16:0, palmitic acid] the ox-phos [2] was “can promote”, the “CD206 expression on DCs” value ([2]; fatty acid alone) was “increase” and the DC differentiation ([2]; fatty acid alone) was “tended to promote”. The lactate production ([2]; fatty acid alone) was “tended to decrease” and the lactate production ([2]; fatty acid alone, listed as palmitic acid) was “decrease”.

For `CCCCC/C=C\C/C=C\C/C=C\C/C=C\CCCCCC(=O)O` [22:4, adrenic acid], the “inhibition of CD206 expression, mDC” value [1] was about -15%.

`CCCCC/C=C\C/C=C\C/C=C\CCCCCCC(=O)O` [20:3 N6, dihomo-γ-linolenic acid] was tested, and the “CD206 expression at the iDC stage” value [1] was “immunoregulatory activity”, the “inhibition of CD206 expression, mDC” value [1] was about -15% and the “CD206 expression compared to controls” value [1] was “significantly reduced”.

B1: palmitic acid-bound AFP: alpha fetoprotein non-covalently bound to palmitic acid (protein, UniProt P02771 19-609, looked up)
Alpha-fetoprotein: RTLHRNEYGIASILDSYQCTAEISLADLATIFFAQFVQEATYKEVSKMVKDALTAIEKPTGDEQSSGCLENQLPAFLEELCHEKEILEKYGHSDCCSQSEEGRHNCFLAHKKPTPASIPLFQVPEPVTSCEAYEEDRETFMNKFIYEIARRHPFLYAPTILLWAARYDKIIPSCCKAENAVECFQTKAATVTKELRESSLLNQHACAVMKNFGTRTFQAITVTKLSQKFTKVNFTEIQKLVLDVAHVHEHCCRGDVLDCLQDGEKIMSYICSQQDTLSNKITECCKLTTLERGQCIIHAENDEKPEGLSPNLNRFLGDRDFNQFSSGEKNIFLASFVHEYSRRHPQLAVSVILRVAKGYQELLEKCFQTENPLECQDKGEEELQKYIQESQALAKRSCGLFQKLGEYYLQNAFLVAYTKKAPQLTSSELMAITRKMAATAATCCQLSEDKLLACGEGAADIIIGHLCIRHEMTPVNPGVGQCCTSSYANRRPCFSSLVVDETYVPPAFSDDKFIFHKDLCQAQGVALQTMKQEFLINLVKQKPQITEEQLEAVIADFSGLLEKCCQGQEQEVCFAEEGQKLISKTRAALGV
modifications: non-covalently bound palmitic acid
In the case of B1, the “CD206 expression in dendritic cells” value ([1]; fatty acid-bound AFP) is reported as “increased” and the “lactate secretion in dendritic cells” value ([1]; fatty acid-bound AFP) is reported as “decreased”.

B2: nAFP: cord blood-derived normal alpha fetoprotein; commercially available (Cell Sciences) (protein, UniProt P02771 19-609, looked up)
Alpha-fetoprotein: RTLHRNEYGIASILDSYQCTAEISLADLATIFFAQFVQEATYKEVSKMVKDALTAIEKPTGDEQSSGCLENQLPAFLEELCHEKEILEKYGHSDCCSQSEEGRHNCFLAHKKPTPASIPLFQVPEPVTSCEAYEEDRETFMNKFIYEIARRHPFLYAPTILLWAARYDKIIPSCCKAENAVECFQTKAATVTKELRESSLLNQHACAVMKNFGTRTFQAITVTKLSQKFTKVNFTEIQKLVLDVAHVHEHCCRGDVLDCLQDGEKIMSYICSQQDTLSNKITECCKLTTLERGQCIIHAENDEKPEGLSPNLNRFLGDRDFNQFSSGEKNIFLASFVHEYSRRHPQLAVSVILRVAKGYQELLEKCFQTENPLECQDKGEEELQKYIQESQALAKRSCGLFQKLGEYYLQNAFLVAYTKKAPQLTSSELMAITRKMAATAATCCQLSEDKLLACGEGAADIIIGHLCIRHEMTPVNPGVGQCCTSSYANRRPCFSSLVVDETYVPPAFSDDKFIFHKDLCQAQGVALQTMKQEFLINLVKQKPQITEEQLEAVIADFSGLLEKCCQGQEQEVCFAEEGQKLISKTRAALGV
B2 was tested, and the glucose uptake [3] was “modestly increases”, the FAO [4] was “similarly reduces” and the glucose dependent metabolism [4] was “modestly increases”. The “levels of cytochrome C (CytC)” value [5] was “elevated”.
